Source: BindingDB's records for doi:10.1016/j.chembiol.2005.12.008 (Academia Sinica, 2006)

Target: Replicase polyprotein 1ab (Severe acute respiratory syndrome coronavirus, UniProt P0C6X7)
Test: Inhibition Assay
Settings: pH 7.5
Source text: Inhibition assay against SARS-CoV 3CL protease, a fluorometric assay was utilized to determine the inhibition constants of the samples.

**Q.** How did the Ki turn out when CNc1ccc(C(O)Cn2nnc3ccccc32)cc1 (stereo not given) [Benzotriazole ester, 19] was run?
**A.** Its Ki is > 50 µM.

**Q.** With Nc1ccc(C(=O)Cn2nnc3ccccc32)cc1 [Benzotriazole ester, 15] as the compound, how does the IC50 read?
**A.** The IC50 was > 50 µM.

**Q.** Which Ki does the source give for CN(C)c1ccc(C(O)Cn2nnc3ccccc32)cc1 (stereo not given) [Benzotriazole ester, 20] here?
**A.** Its Ki is > 50 µM.

**Q.** O=C(Cn1nnc2ccccc21)c1ccc([N+](=O)[O-])cc1 [Benzotriazole ester, 13] was tested. Which IC50 did it give?
**A.** The IC50 was > 50 µM.

**Q.** For Nc1ccc(C(O)Cn2nnc3ccccc32)cc1 (stereo not given) [Benzotriazole ester, 16], which IC50 is on record?
**A.** Its IC50 is > 50 µM.
